{"source": "patent US12552837B2", "about": "“Bicyclic peptide ligands with detectable moieties and uses thereof” (BicycleRD Limited, priority 2017, dated 2026)", "biological_target": "MT1-MMP hemopexin domain (Homo sapiens, UniProt P50281)", "test": "Fluorescence polarization direct binding / competition assay to MT1-MMP hemopexin domain", "protocol": "Direct Binding Fluorescence Polarization or Anisotropy Assays are performed by titrating a constant concentration of fluorescent tracer (here, the fluoresceinated bicyclic peptide to be studied) with its binding partner (here, the MT1-MMP hemopexin domain). As the concentration of binding partner increases during the titration, the polarization signal changes in proportion to the fraction of bound and unbound material. This allows determination of […] (Kd) quantitatively. Assay data can be fit using standard ligand binding equations.\nTypically, concentrations of the tracer are ideally well below the Kd of the tracer: titrant pair, and concentrations chosen are usually at ˜1 nM or less. The titrant (binding partner) concentration is varied from 0.1 nM up to typically 5 μM. The range is chosen such that the maximum change in fluorescent polarization can be observed. Buffers employed are phosphate buffered saline in the presence of 0.01% Tween. Experiments were run in black 384 well low-bind/low volume plates (Corning 3820), and the fluorescent polarization signal was measured using a BMG Pherastar FS plate reader. Fluorescent tracers referred to in the text are bicyclic peptides that have been fluoresceinated using 5,6-carboxyfluorescein. Fluoresceination may be performed on the N-terminal amino group of the peptide, which is separated from the bicycle core sequence by a sarcosine spacer (usually Sar10 (SEQ ID NO: 73)). This can be done during Fmoc solid phase synthesis or post-synthetically (after cyclization with the molecular scaffold reagent and purification) if the N-terminal amino group is unique to the peptide. Fluoresceination can also be performed on the C-terminus, usually on a Lysine introduced as the first C-terminal residue, which is then separated from the bicycle core sequence by a sarcosine spacer (usually Sar6 (SEQ ID NO: 69)). Thus, N-terminal tracers can have a molecular format described as Fluo-Ala-Sar10-A (SEQ ID NO: 72) (BicycleCoreSequence), and (BicycleCoreSequence)-A-Sar6-K (Fluo) (SEQ ID NO: 67) for a C-terminally fluoresceinated construct.\nFluorescent tracers used in the Examples are A-(17-69)-A-Sar6-K (Fluo) (SEQ ID NO: 67), A-(17-69-07)-A-Sar6-K (Fluo) (SEQ ID NO: 67), and A-(17-69-12)-A-Sar6-K (Fluo) (SEQ ID NO: 67). Due to the acidic nature of the 17-69 fluorescent peptides, they were typically prepared as concentrated DMSO stocks, from which dilution were prepared in 100 mM Tris pH 8 buffer.\nDue to their high affinities to the MT1-MMP Hemopexin domain (PEX), the fluoresceinated derivatives of 17-69-07 and 17-69-12 (denoted as 17-69-07-N040 and 17-69-12-N005, respectively) can be used for competition experiments (using FP for detection). […] Dissociation of the complex can be measured quantitatively, and the Kd of the competitor (titrant) to the target protein determined. The advantage of the competition method is that the affinities of non-fluoresceinated bicyclic peptides can be determined accurately and rapidly.\nSubsequently, the non-fluorescent competitor bicyclic peptide (usually just the bicycle core sequence) is titrated, such that it displaces the fluorescent tracer from the target protein. The displacement of the tracer is measured and associated with a drop in fluorescence polarization. The drop in fluorescence polarization is proportional to the fraction of target protein bound with the non-fluorescent titrant, and thus is a measure of the affinity of titrant to target protein. […]", "note": "*1 amine or outer side, *2 acyl side, *3 side chain or, on linkers, in order; H or OH if unused. Where a SMILES comes first, the peptide text is derived from it. Bridges are numbered along the chain shown (N, C = ends). [ ]: non-standard residue; d: D form. The star is where a group is joined. DOTA = O=C(O)CN1CCN(CC(=O)O)CCN(CC(=O)*)CCN(CC(=O)O)CC1; 1Nal = N[C@@H](Cc1cccc2ccccc12)C(=O)O; TBMB = c1c(C[*:1])cc(C[*:3])cc1C[*:2]; Tle = CC(C)(C)[C@H](N)C(=O)O"}
{"smiles": "C[C@H](NC(=O)CN1CCN(CC(=O)O)CCN(CC(=O)O)CCN(CC(=O)O)CC1)C(=O)N[C@H]1CSCc2cc3cc(c2)CSC[C@H](NC(=O)[C@@H](C)NC(=O)[C@H](Cc2cccc4ccccc24)NC(=O)[C@H](CCC(=O)O)NC(=O)[C@H](CC(N)=O)NC(=O)[C@@H](C)NC1=O)C(=O)N[C@@H](CCC(=O)O)C(=O)N[C@@H](CC(=O)O)C(=O)N[C@@H](Cc1ccccc1)C(=O)N[C@@H](Cc1ccc(O)cc1)C(=O)N[C@@H](CC(=O)O)C(=O)N[C@@H](C(C)(C)C)C(=O)N[C@H](C(N)=O)CSC3", "note": "[I-23] ({DOTA}-AC[dA]NE[1Nal][dA]CEDFYD[Tle]C-NH2; linker 2-8-15 via TBMB)", "values": [{"measurement": "Kd", "value": "520 ± 240", "unit": "pM"}]}
